Laboratory results: PMC9765439, “Systems-Wide Dissection of Organic Acid Assimilation in Pseudomonas aeruginosa Reveals a Novel Path To Underground Metabolism” (mBio, 2022)

Legend:
[1] = target: T1, GltAPa (citrate synthase) (Pseudomonas aeruginosa, UniProt P14165); experiment: DTNB (TNB release) spectrophotometric assay, […] nm; format: biochemical; conditions: 0.5 mM oxaloacetate; 50 mM HEPES pH 7.5, 0.1 M KCl, 0.54 M glycerol; 37 °C
T1 construct: gene gltA; full-length ORF, 429 aa; pET-19m, N-terminal TEV-cleavable His6 tag, cut; E. coli host; hexamer in asymmetric unit
T1 sequence (P14165 1-428): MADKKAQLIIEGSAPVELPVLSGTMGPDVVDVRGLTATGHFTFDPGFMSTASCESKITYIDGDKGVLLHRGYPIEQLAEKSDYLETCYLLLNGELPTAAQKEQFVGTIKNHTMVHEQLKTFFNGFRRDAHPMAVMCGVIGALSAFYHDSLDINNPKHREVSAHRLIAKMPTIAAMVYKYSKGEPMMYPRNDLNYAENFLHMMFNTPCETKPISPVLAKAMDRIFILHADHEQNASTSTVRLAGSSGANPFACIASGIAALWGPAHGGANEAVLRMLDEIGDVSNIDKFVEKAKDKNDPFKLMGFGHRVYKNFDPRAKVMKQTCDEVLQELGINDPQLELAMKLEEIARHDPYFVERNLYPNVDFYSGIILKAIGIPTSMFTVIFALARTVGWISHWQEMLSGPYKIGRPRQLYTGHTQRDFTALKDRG

[2] = target: T2, PrpCPa (2-methylcitrate synthase, 2-MCS) (Pseudomonas aeruginosa, UniProt Q9I5E3); experiment: X-ray crystallography; format: binding; conditions: 2.5 mM oxaloacetate in crystallisation, Bis-Tris pH 5.5; active site of chain D only
T2 construct: gene prpC; pET-19m, N-terminal TEV-cleavable His6 tag, cut; E. coli host; homodimer
T2 sequence (Q9I5E3 1-375): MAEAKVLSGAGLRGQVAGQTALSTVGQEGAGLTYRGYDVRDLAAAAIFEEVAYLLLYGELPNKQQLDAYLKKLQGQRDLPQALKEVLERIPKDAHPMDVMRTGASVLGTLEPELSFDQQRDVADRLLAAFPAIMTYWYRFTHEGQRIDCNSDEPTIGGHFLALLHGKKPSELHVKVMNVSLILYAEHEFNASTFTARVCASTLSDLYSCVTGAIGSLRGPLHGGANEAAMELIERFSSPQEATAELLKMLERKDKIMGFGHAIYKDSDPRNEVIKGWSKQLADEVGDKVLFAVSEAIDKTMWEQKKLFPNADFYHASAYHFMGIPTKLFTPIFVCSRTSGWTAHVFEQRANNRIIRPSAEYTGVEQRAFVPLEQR

Structure (SMILES) | DTNB (TNB release) spectrophotometric assay, 412 nm [1] | X-ray crystallography [2]
CC(=O)SCCNC(=O)CCNC(=O)[C@H](O)C(C)(C)COP(=O)(O)OP(=O)(O)OC[C@H]1O[C@@H](n2cnc3c(N)ncnc32)[C@H](O)[C@@H]1OP(=O)(O)O [acetyl-CoA] | Purified GltAPa is a citrate synthase with no detectable 2-methylcitrate synthase activity. | –
O=C(O)CC(=O)C(=O)O [oxaloacetate] | – | Crystal structure of oxaloacetate-bound PrpCPa represented in cartoon (PDB: 6S87).
